Ki data for nine compounds are collected here from BindingDB's records for doi:10.1021/bi401043w (Mayo Clinic, 2013).

Acetylcholinesterase (Homo sapiens, UniProt P22303), sequence (P22303 whole entry): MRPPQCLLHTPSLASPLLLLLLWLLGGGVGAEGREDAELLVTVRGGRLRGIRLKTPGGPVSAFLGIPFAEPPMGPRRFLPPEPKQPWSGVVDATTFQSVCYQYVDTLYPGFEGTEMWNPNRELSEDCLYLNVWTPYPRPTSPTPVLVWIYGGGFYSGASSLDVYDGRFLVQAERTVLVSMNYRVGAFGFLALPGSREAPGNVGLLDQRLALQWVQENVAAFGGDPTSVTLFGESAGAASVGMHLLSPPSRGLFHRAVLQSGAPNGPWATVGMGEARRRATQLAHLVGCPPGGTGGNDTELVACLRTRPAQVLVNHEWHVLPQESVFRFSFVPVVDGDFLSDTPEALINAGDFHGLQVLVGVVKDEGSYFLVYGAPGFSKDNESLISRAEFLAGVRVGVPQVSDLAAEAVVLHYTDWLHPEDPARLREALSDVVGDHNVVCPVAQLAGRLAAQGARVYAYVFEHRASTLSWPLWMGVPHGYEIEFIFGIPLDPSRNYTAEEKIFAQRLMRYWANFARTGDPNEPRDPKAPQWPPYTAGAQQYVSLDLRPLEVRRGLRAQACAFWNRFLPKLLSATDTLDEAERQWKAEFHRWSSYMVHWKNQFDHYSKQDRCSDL

One experiment concerns the target T1, Acetylcholinesterase (Mus musculus, UniProt P21836).
T1 sequence (P21836 whole entry): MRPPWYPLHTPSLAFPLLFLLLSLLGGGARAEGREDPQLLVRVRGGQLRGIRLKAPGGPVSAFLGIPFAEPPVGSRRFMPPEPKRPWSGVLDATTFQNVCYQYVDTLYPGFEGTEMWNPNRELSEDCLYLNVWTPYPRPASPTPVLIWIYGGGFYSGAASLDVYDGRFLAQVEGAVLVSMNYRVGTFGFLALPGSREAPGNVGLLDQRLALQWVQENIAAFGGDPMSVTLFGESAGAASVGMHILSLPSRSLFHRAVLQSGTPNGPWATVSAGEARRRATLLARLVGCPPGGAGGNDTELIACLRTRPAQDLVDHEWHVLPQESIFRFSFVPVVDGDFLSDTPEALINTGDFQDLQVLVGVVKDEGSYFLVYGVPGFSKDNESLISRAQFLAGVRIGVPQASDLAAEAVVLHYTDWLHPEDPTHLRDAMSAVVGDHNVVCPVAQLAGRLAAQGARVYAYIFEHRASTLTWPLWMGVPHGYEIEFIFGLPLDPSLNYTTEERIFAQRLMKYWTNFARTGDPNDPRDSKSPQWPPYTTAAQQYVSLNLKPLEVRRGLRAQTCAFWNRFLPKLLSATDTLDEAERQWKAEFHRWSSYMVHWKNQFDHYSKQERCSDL
As to the kind of experiment: Assay of Substrate Hydrolysis. To be noted: pH 7; 25 °C. Here is the method: (§1) Assays were conducted at 25 C in 20 mM sodium phosphate buffer (pH 7.0) and 0.01% bovine serum albumin unless otherwise noted. AChE concentrations were varied to optimize measured rates.
Usually Ki stands for a dissociation constant, usually derived from enzyme kinetics or from competition with a known ligand. As for `CC[N+](C)(C)c1cccc(O)c1` [Edrophonium Chloride, 3], the inhibition constant (Ki) was 250 nM.

`O=c1ccc2ccccc2o1` [2H-chromen-2-one] showed a Ki of 9300 nM.

`C[n+]1c2ccccc2cc2ccccc21` [N-methylacridinium]: the Ki came out at 310 nM.

A further experiment has as its target Acetylcholinesterase (Homo sapiens, UniProt P22303). As to the kind of experiment: Assay of Substrate Hydrolysis. The settings on record: pH 7; 25 °C. The method, then: as §1
`Cc1ccc2c(c1)sc(-c1ccc(N(C)C)cc1)[n+]2C` [Thioflavin T, 1] gave a Ki of 1000 nM.

Take `CCC1=C[C@@H]2Cc3nc4cc(Cl)ccc4c(N)c3[C@H](C1)C2` (racemic) [(1S)-7-chloro-15-ethyl-10-azatetracyclo[11.3.1.0^{2,11}.0^{4,9}]heptadeca-2(11),3,5,7,9,14-hexaen-3-amine]: the affinity corresponds to a Ki of 0.026 nM.

Compound `COc1cc2c(c3oc(=O)c4c(c13)CCC4=O)[C@@H]1C=CO[C@@H]1O2` [Aflatoxin B1] returned an inhibition constant Ki of 28000 nM.

`COc1cc(-c2cc3c(c(=O)o2)C[C@]2(O)[C@@]4(C)C(=O)C=CC(C)(C)[C@]4(O)CC[C@@]2(C)O3)cc(OC)c1OC` had a Ki of 1.7 nM.

For `Cc1cccc2c3c(ccc12)C1=C(C(=O)C3=O)[C@@H](C)CO1` [Dihydrotanshinone I], the affinity, expressed as Ki, was 750 nM.

For `C/C=C1\C2C=C(C)CC1(N)c1ccc(=O)[nH]c1C2` (stereo not drawn) [(+)-Huperzine A], the Ki came to 4.6 nM.
